Results on 2 molecules are retold here after US11344025B2, “Organ preconditioning formulation with mitochondrial elongating agents” (MUSC FOUNDATION FOR RESEARCH DEVELOPMENT, priority 2017, dated 2022).

Entries after “also recorded” stand apart in the source; their conditions may differ. Where two headings read alike, the source gives them in different places.

Data set [1] is described as follows: Systemic administration of Mdivi-1, adverse effects. Format: in vivo. From the text: The studies proposed will delineate the role of mito morphology alterations in cardiac-Tx. They will also determine how donor BD impacts IM, and identify an optimum drug delivery strategy for reducing acute post-Tx injury through mito shape manipulation. The opposing roles of mito fission and fusion regulate mito morphology and function. A number of key proteins have been identified which control this process (DRP-1, mito fission protein-1 (Fis-1) and mito fission factor (mff), Mfn1/2, and OPA-1). Given the importance of these proteins for the maintenance of cellular respiration, genetic deletion is most often fatal. However, C57Bl/6 homozygous mito fission factor (Mff)-deficient (Mff^gt−/−) mice are available, as are pharmacological promoters of fusion, M1 and Mdivi-1. […] Using these tools, the inventors will dissect the role of fission and fusion in IRI and rejection in the context of organ Tx. The inventors propose three sub Aims. In SA 2.1, the inventors will determine the impact of mito fission inhibition, and thus fusion promotion, through comparing the effects of IRI and AR of recipients receiving hearts from C57Bl/6 wildtype (wt) or C57Bl/6 homozygous mito fission factor (Mff)-deficient (Mff^gt−/−) donors. In SA 2.2 the inventors will explore the therapeutic potential of donor heart pre-treatment with M1, Mdivi-1, and a combination of both. […]

For a further data set, the system named is focal cardiac ischemia. Conditions: non-transplant setting, previous studies, cited from earlier work.
Data set [2] deals with sensitized allogeneic CD8+ T-cells cocultured with MCECs. The experiment in a line: EC/T cell co-culture: cytokine release by alloreactive CD8 T cells. Type of data set: cell-based, mouse. Conditions: cold stored (CIT) and treated ECs. The text has this: EC/T cell co-culture: Using the genetically modified and pharmacological inhibitors the inventors will dissect the impact of EC mito morphology manipulation on T cell activation/co-stimulation. These studies will focus on MCECs given the availability of reagents and ability to generate alloreactive CD8 T cells as previously published.
Allogenic CD8 T cells will be generated. In brief, C57Bl/6 mice will be inoculated with MCECs i.p. and 3 weeks later spleens will be harvested and CD8 T cells isolated using bead isolation techniques. These MCEC alloreactive CD8 T cells will then be co-cultured with MCECs in the normoxic and CIT models.

Another data set deals with MCECs. The experiment in a line: mitoSOX staining of mito ROS after CIT. Format: cell-based, mouse. The settings on record: CIT-induced ROS.

With `COc1cc(-n2c(S)nc3ccccc3c2=O)c(Cl)cc1Cl` [Mdivi-1], the adverse side effects entry in data set [1] is “no detectable adverse side effects”. The “cardioprotection from focal IRI” value in the data set on focal cardiac ischemia was “provides protection from IRI; also recorded: promote cardioprotective effects”; in the data set with focal cardiac ischemia (listed as Mdivi1), “protect both myocardium and microvasculature”.

Regarding `CC(=O)N[C@@H](CS)C(=O)O` [NAC, N-Acetyl Cysteine], in data set [2], the “Granzyme B (GrB) production by co-cultured alloreactive CD8 T cells” value is listed as “has no impact; also recorded: no significant effect; also recorded: do not decrease Granzyme-B to the extent of DRP-KD” and the “IFN-gamma production by co-cultured alloreactive CD8 T cells” value is “has no impact; also recorded: no significant effect”. In the data set on MCECs, the “mito ROS (mitoSox)” value is listed as “completely abrogated ROS”.
